Data published in article PMC11754874, “Novel inhibitors of the (VIBVN) NAT protein identified through pharmacophore modeling” (Scientific Reports, 2025).

Biological target: (VIBVN)NAT (arylamine N-acetyltransferase)
Test: DTNB assay of AcCoA-dependent acetylation, absorbance at […] nm
Assay type: biochemical, Vibrio vulnificus

SMILES: CCCS(=O)(=O)c1c(S(=O)(=O)CCC)c2ccccn2c1C(=O)N/N=C/c1cc(OC)ccc1O [AG-205-36710025]
- IC50: 33.3 µM
